Measured values: patent publication US7091040B1, “P450/acetaminophen genetically directed enzyme prodrug therapy (GDEPT)” (Innovata PLC, priority 1999, dated 2006)

Experiments:
[1] = Viability of V79 MZ cells, alone or co-cultured with H1A2 MZ cells (bystander effect), with acetaminophen, trypan blue exclusion; format: cell-based, Chinese hamster; conditions: Chinese hamster; for viability at 4 mM: 4 mM acetaminophen 6 h, then 24 h in culture medium; for viability at 0 h, 4 mM / viability at 6 h, 4 mM: 4 mM acetaminophen in PBS
Procedure: Table 1 represents the bystander effect on viability produced by incubating H1A2 MZ cells (stably transfected with human CYP1A2) with various cell-lines in the presence of acetaminophen. Tumour cells or V79 MZ cells (non transfected, parental cells) were co-cultured overnight with various mixtures of H1A2 MZ cells (as indicated in the Table), […] the cells were then washed once with PBS and maintained for either 24 or 48 h in culture medium appropriate to each cell type, as detailed in the Methods section. At 0, 6, 24 or 48 h the cells were washed in PBS and viability of the mixed cell population determined by trypan blue exclusion. The data shown are mean values±SEM of 4 separate determinations. Statistical significance was determined at each time point by comparing viability measurements in the mixed cell populations with both the viability determined at 0 h and in the absence of H1A2 MZ cells in the mixture 2×2 contingency tables using the 2-tailed Chi-squared test with Yate's correction. Viability was determined in a total of 1500 cells at each time point. Levels of significance are indicated as **p<0.001; ***p<0.0001;
FIG. 4 represents the bystander effect on viability produced by incubating stably transfected, acetaminophen-activating H1A2 MZ cells with non-transfected parental V79 MZ cells. […] The cells were then washed in PBS and the viability of the mixed cell population determined by trypan blue exclusion. The cultures comprised V79 MZ cells only (open squares), and V79 MZ cells mixed with 5% (solid squares), 10% (open triangles), 25% (open circles) and 50% (solid circles) H1A2 MZ cells. In addition, the viability of H1A2 MZ cells in the presence (crosses) and absence (solid triangles) of acetaminophen is shown.

[2] = tested on: MDA-MB-361 cells; experiment: Bystander effect on viability of MDA-MB-361 cells co-cultured with H1A2 MZ cells in the presence of acetaminophen, trypan blue exclusion; format: cell-based, human; conditions: for viability at 4000 µM: Homo sapiens
Procedure: (§1) Tumour cells or V79 MZ cells (non transfected, parental cells) were co-cultured overnight with various mixtures of H1A2 MZ cells (as indicated in the Table), washed with PBS and incubated with 4 mM acetaminophen in PBS for 6 h at 37° C. the cells were then washed once with PBS and maintained for either 24 or 48 h in culture medium appropriate to each cell type, as detailed in the Methods section. At 0, 6, 24 or 48 h the cells were washed in PBS and viability of the mixed cell population determined by trypan blue exclusion. The data shown are mean values±SEM of 4 separate determinations. Statistical significance was determined at each time point by comparing viability measurements in the mixed cell populations with both the viability determined at 0 h and in the absence of H1A2 MZ cells in the mixture 2×2 contingency tables using the 2-tailed Chi-squared test with Yate's correction. Viability was determined in a total of 1500 cells at each time point. Levels of significance are indicated as **p<0.001; ***p<0.0001;
(§2) For cell viability experiments 200,000 cells per well were plated on 12 well plates (Beckton-Dickenson, Oxford, UK), using the medium and conditions required by the tumour cell line and allowed to adhere overnight. After this the cells were washed with PBS before the addition of acetaminophen in 0.1 ml PBS (concentrations of 0.1–20 mM acetaminophen were dissolved in PBS by sonication) and then maintained at 37° C. At the appropriate time points, cells were removed from the plates by trypsinisation and collected by centrifugation. Cell viability was measured as ability to exclude trypan blue. Cells were counted at ×100 magnification using an Improved Neubauer haemocytometer; all cell counts are the mean of duplicate determinations of five fields from duplicate experiments.
(§3) V79 MZ Chinese hamster cells were maintained in Dulbecco-Vogt's modified Eagle's Medium (DMEM) supplemented with 10% foetal calf serum 9FCS), 2 mM L-glutamine, penicillin (100 U/ml and streptomycin (100 μg/ml) (all tissue culture reagents were obtained from Gibco BRL, Paisley, UK). H1A2 MZ cells, which are V79 MZ cells transfected with the human CYP1A2 gene, were also maintained in supplemented DMEM with the addition of geneticin at a concentration of 4 mg/ml. SK-OV-3 cells were grown in DMEM supplemented with 15% FCS and 2 mM L-glutamine, without the addition of antibiotics. RPMI-1640 medium with 10% FCS, 2 mM L-glutamine, penicillin (100 U/ml) and streptomycin ([…]) was required by the HCT116 cells. These cell lines were maintained at 37° C. with 100% humidity and 5% CO2. […] At confluence cells were removed from tissue culture flasks by inubation with trypsin-EDTA for 5 min, diluted 1:3–1:6 in fresh medium and seeded onto fresh flasks. The tumour cell lines were obtained from the European Collection of Cell Cultures.

[3] = as above; format: cell-based, human; conditions: human; for viability at 4 mM: 4 mM acetaminophen 6 h; for viability at 0 h, 4 mM / viability at 6 h, 4 mM: 4 mM acetaminophen in PBS
Procedure: as §1, §2, §3

[4] = tested on: SK-OV-3 cells; experiment: Bystander effect on viability of SK-OV-3 cells co-cultured with H1A2 MZ cells in the presence of acetaminophen, trypan blue exclusion; format: cell-based, human; conditions: for viability at 4000 µM: Homo sapiens
Procedure: as §1, §2, §3

[5] = V79 MZ cells + 5% H1A2 MZ cells
[6] = V79 MZ cells + 10% H1A2 MZ cells
[7] = V79 MZ cells + 25% H1A2 MZ cells
[8] = V79 MZ cells + 50% H1A2 MZ cells
[9] = MDA-MB-361 cells + 10% H1A2 MZ cells
[10] = MDA-MB-361 cells + 25% H1A2 MZ cells
[11] = MDA-MB-361 cells + 50% H1A2 MZ cells

Structure (SMILES): CC(=O)Nc1ccc(O)cc1 [acetaminophen]
- viability at 4 mM [1, 5]: 0%
- viability at 0 h, 4 mM [1, 5]: 98 ± 1%
- viability at 6 h, 4 mM [1, 5]: 52%
- viability at 4 mM [1, 6]: 0%
- viability at 0 h, 4 mM [1, 6]: 98 ± 1%
- viability at 6 h, 4 mM [1, 6]: 39 ± 6%
- viability at 4 mM [1, 7]: 0%
- viability at 0 h, 4 mM [1, 7]: 97 ± 2%
- viability at 6 h, 4 mM [1, 7]: 20 ± 4%
- viability at 4 mM [1, 8]: 0%
- viability at 0 h, 4 mM [1, 8]: 96 ± 3%
- viability at 6 h, 4 mM [1, 8]: 15 ± 7%
- viability at 4 mM ([1]; V79 MZ cells, 0% H1A2 MZ cells): 98 ± 1%
- viability at 0 h, 4 mM ([1]; V79 MZ cells, 0% H1A2 MZ cells): 99 ± 1%
- viability at 6 h, 4 mM ([1]; V79 MZ cells, 0% H1A2 MZ cells): 94 ± 7%
- viability at 4000 µM ([2]; MDA-MB-361, 0 h, MDA-MB-361 cells + 5% H1A2 MZ cells, 4 mM acetaminophen in PBS, 0 h): 98 ± 2%
- viability at 4000 µM ([2]; MDA-MB-361, 0 h, MDA-MB-361 cells, 0% H1A2 MZ cells, 4 mM acetaminophen in PBS, 0 h): 96 ± 1%
- viability at 4000 µM ([2]; MDA-MB-361, 6 h, MDA-MB-361 cells + 5% H1A2 MZ cells, 4 mM acetaminophen in PBS, 6 h): 85 ± 2%
- viability at 4000 µM ([2]; MDA-MB-361, 6 h, MDA-MB-361 cells, 0% H1A2 MZ cells, 4 mM acetaminophen in PBS, 6 h): 98 ± 4%
- viability at 4000 µM ([2]; MDA-MB-361, MDA-MB-361 cells + 50% H1A2 MZ cells, 4 mM acetaminophen 6 h, then 24 h in culture medium): 18%
- viability at 4000 µM ([2]; MDA-MB-361, MDA-MB-361 cells, 0% H1A2 MZ cells, 4 mM acetaminophen 6 h, then 24 h in culture medium): 95 ± 3%
- viability at 4000 µM ([2]; MDA-MB-361, MDA-MB-361 cells, 0% H1A2 MZ cells, 4 mM acetaminophen 6 h, then 48 h in culture medium): 97 ± 1%
- Viability (%) ([2]; MDA-MB-361 cells + 50% H1A2 MZ cells, 4 mM acetaminophen 6 h, then 48 h in culture medium): no viable cells
- susceptibility to cytotoxicity produced by the activation of acetaminophen ([2]; MDA-MB-361 cells mixed with H1A2 MZ cells, 4 mM acetaminophen, 6 h): highly resistant to cytotoxicity
- viability at 4 mM ([3]; MDA-MB-361 cells + 5% H1A2 MZ cells, then 24 h in culture medium): 84 ± 7%
- viability at 4 mM ([3]; MDA-MB-361 cells + 5% H1A2 MZ cells, then 48 h in culture medium): 92 ± 4%
- viability at 4 mM ([3]; MDA-MB-361 cells + 10% H1A2 MZ cells, then 24 h in culture medium): 81 ± 9%
- viability at 4 mM ([3]; MDA-MB-361 cells + 10% H1A2 MZ cells, then 48 h in culture medium): 94 ± 7%
- viability at 0 h, 4 mM [3, 9]: 96 ± 3%
- viability at 6 h, 4 mM [3, 9]: 74 ± 7%
- viability at 4 mM ([3]; MDA-MB-361 cells + 25% H1A2 MZ cells, then 24 h in culture medium): 78 ± 9%
- viability at 4 mM ([3]; MDA-MB-361 cells + 25% H1A2 MZ cells, then 48 h in culture medium): 91 ± 6%
- viability at 0 h, 4 mM [3, 10]: 97 ± 1%
- viability at 6 h, 4 mM [3, 10]: 70 ± 11%
- viability at 4 mM ([3]; MDA-MB-361 cells + 50% H1A2 MZ cells, then 48 h in culture medium): 0%
- viability at 0 h, 4 mM [3, 11]: 98 ± 3%
- viability at 6 h, 4 mM [3, 11]: 42 ± 4%
- viability at 4000 µM ([4]; SK-OV-3, 0 h, SK-OV-3 cells + 5% H1A2 MZ cells, 4 mM acetaminophen in PBS, 0 h): 98 ± 1%
- viability at 4000 µM ([4]; SK-OV-3, 0 h, SK-OV-3 cells + 10% H1A2 MZ cells, 4 mM acetaminophen in PBS, 0 h): 98 ± 1%
- viability at 4000 µM ([4]; SK-OV-3, 0 h, SK-OV-3 cells + 25% H1A2 MZ cells, 4 mM acetaminophen in PBS, 0 h): 97 ± 1%
- viability at 4000 µM ([4]; SK-OV-3, 0 h, SK-OV-3 cells + 50% H1A2 MZ cells, 4 mM acetaminophen in PBS, 0 h): 98 ± 1%
- viability at 4000 µM ([4]; SK-OV-3, 0 h, SK-OV-3 cells, 0% H1A2 MZ cells, 4 mM acetaminophen in PBS, 0 h): 97 ± 1%
- viability at 4000 µM ([4]; SK-OV-3, 6 h, SK-OV-3 cells + 5% H1A2 MZ cells, 4 mM acetaminophen in PBS, 6 h): 55 ± 2%
- viability at 4000 µM ([4]; SK-OV-3, 6 h, SK-OV-3 cells + 10% H1A2 MZ cells, 4 mM acetaminophen in PBS, 6 h): 43 ± 7%
- viability at 4000 µM ([4]; SK-OV-3, 6 h, SK-OV-3 cells + 25% H1A2 MZ cells, 4 mM acetaminophen in PBS, 6 h): 22 ± 11%
- viability at 4000 µM ([4]; SK-OV-3, 6 h, SK-OV-3 cells + 50% H1A2 MZ cells, 4 mM acetaminophen in PBS, 6 h): 16 ± 9%
- viability at 4000 µM ([4]; SK-OV-3, 6 h, SK-OV-3 cells, 0% H1A2 MZ cells, 4 mM acetaminophen in PBS, 6 h): 98 ± 2%
- viability at 4000 µM ([4]; SK-OV-3, SK-OV-3 cells + 5% H1A2 MZ cells, 4 mM acetaminophen 6 h, then 24 h in culture medium): 0%
- viability at 4000 µM ([4]; SK-OV-3, SK-OV-3 cells + 10% H1A2 MZ cells, 4 mM acetaminophen 6 h, then 24 h in culture medium): 0%
- viability at 4000 µM ([4]; SK-OV-3, SK-OV-3 cells + 25% H1A2 MZ cells, 4 mM acetaminophen 6 h, then 24 h in culture medium): 0%
- viability at 4000 µM ([4]; SK-OV-3, SK-OV-3 cells + 50% H1A2 MZ cells, 4 mM acetaminophen 6 h, then 24 h in culture medium): 0%
- viability at 4000 µM ([4]; SK-OV-3, SK-OV-3 cells, 0% H1A2 MZ cells, 4 mM acetaminophen 6 h, then 24 h in culture medium): 96 ± 3%
- Viability (%) ([4]; SK-OV-3 cells + 5% H1A2 MZ cells, 4 mM acetaminophen 6 h, then 24 h in culture medium): zero
- susceptibility to cytotoxicity produced by the activation of acetaminophen ([4]; SK-OV-3 cells mixed with H1A2 MZ cells, 4 mM acetaminophen, 6 h): highly sensitive
